{"source": "patent US20260365662A1", "about": "“ISOANDROGRAPHOLIDE ANALOGS AND METHOD FOR TREATMENT USING THE SAME” (Enveda Therapeutics, Inc., priority 2023, published 2026)", "test_system": "female BALB/c mouse", "assay": "MC-903 induced atopic dermatitis model, prophylactic (Example 12)", "format": "in vivo", "details": "for immune cell infiltration: histopathology, back skin; for IL-31 expression: itch marker", "method": "Experimental details: Preclinical animal model of atopic dermatitis was developed by MC-903, a vitamin-D analogue. In the current study, the test item Compound 2 was screened to evaluate its efficacy in MC-903 induced AD model. 2 nmol of MC-903 was topically applied to 8-10 weeks old female BALB/c mouse from G2-G7 group at a volume of 50 μl/mouse on back skin on every alternate day for 14 days to induced disease. For the G1 group, (Normal+ethanol control) the same volume of ethanol that was used to solubilize MC-903 was applied. Clobetasol (0.05%, 20 mg) was applied topically once a day to G3 group animals. Compound 2 was administered twice a day to respective treatment groups (G4-G7) for 14 days. On the day of MC-903 administration, test compounds were dosed one hour prior to MC-903 insult. Clinical scores to assess the disease intensity were measured from visual examination for erythema, scaling and back skin thickness using dial caliper. All the scores were carried by blinded observers to treatment groups. Cumulative dermatitis severity scores were calculated by adding up the individual scores of erythema, scaling & thickness. On day-14 of the study, all animals were terminally bled under mild anesthesia followed by humane sacrifice and back skin tissue was dissected. Required skin tissue samples were collected in fixative and part of the tissue was flash-frozen in liquid nitrogen and stored at −80 °C. Collected tissue samples were processed and used for biomarker analysis using gene and protein expression analysis by qPCR & ELISA, pharmacokinetic analysis by LC-MS and histopathology studies.", "key": {"[1]": {"details": "twice a day, 14 days, vs MC-903 vehicle control"}}}
{"smiles": "C[C@@]12CCC(=O)N[C@@](C)(CO)[C@H]1CC[C@@]1(C)O[C@H](C3=CCOC3=O)C[C@@H]21", "note": "[Compound 2, (2S,3aR,5aS,6R,10aR,10bS)-6-(hydroxymethyl)-3a,6,10a-trimethyl-2-(2-oxo-2,5-dihydrofuran-3-yl) dodecahydro-8H-benzofuro[5,4-c]azepin-8-one]", "values": [{"measurement": "neutrophil infiltration", "setting": "FIG. 12C", "result": "robustly reduces"}, {"measurement": "early barrier alarmins in skin", "setting": "FIG. 12G", "result": "reduces early barrier alarmins"}, {"measurement": "tissue cytokine expression", "setting": "FIG. 12H", "result": "impacts tissue cytokine expression"}, {"measurement": "improvement of MC-903-induced atopic dermatitis", "setting": "compared with high-potency topical corticosteroids", "result": "comparable to high-potency topical corticosteroids"}, {"measurement": "immune cell infiltration", "result": "significantly reduced"}, {"measurement": "immune cell infiltration", "setting": "listed as compound 2", "result": "reduced dose-dependent immune cell infiltration"}, {"measurement": "histopathological changes and final histopathology scores", "setting": "hyperkeratosis, parakeratosis, lengthening and clubbing of rete ridges, vs MC-903 vehicle control", "result": "significantly reduced"}, {"measurement": "IL-31 expression", "setting": "prophylactic, back skin tissue", "result": "significantly reduced"}, {"measurement": "IL-31 expression", "setting": "prophylactic, back skin tissue, listed as compound 2", "result": "decreases IL-31 expression"}, {"measurement": "NGAL levels", "setting": "neutrophil marker, back skin tissue", "result": "significantly reduced"}, {"measurement": "NGAL levels", "setting": "neutrophil marker, back skin tissue, listed as compound 2", "result": "significantly reduces NGAL levels"}, {"measurement": "Lipocalin-2 expression", "setting": "neutrophil marker, prophylactic, back skin tissue", "result": "significantly reduced"}, {"measurement": "IL-4 expression", "setting": "prophylactic, back skin tissue", "result": "significantly reduced"}, {"measurement": "IL-13 expression", "setting": "prophylactic, back skin tissue", "result": "significantly reduced"}, {"measurement": "Krt6a expression", "setting": "prophylactic, back skin tissue", "result": "significantly reduced"}, {"measurement": "Tissue TSLP expression", "setting": "prophylactic, back skin tissue", "result": "significantly reduced"}, {"measurement": "dermatitis severity scores", "setting": "[1]", "result": "dose dependent decrease"}, {"measurement": "epidermal thickness", "setting": "[1]", "result": "significantly reduced"}, {"measurement": "epidermal thickness", "setting": "twice a day, 14 days, vs MC-903 vehicle control, listed as compound 2", "result": "robustly reduces epidermal thickness"}]}
